{
  "source": "patent US9670363B2",
  "about": "“Substituted anthraquinone dyes for cellular stains and enzyme detection” (Biotium, Inc., priority 2011, dated 2017)",
  "type_in_all_cases": "cell-based",
  "key": {"HeLa cells [1]": {"tested_on": "HeLa cells", "assay": "Staining of fixed and permeabilized cells", "details": "HeLa fixed with 4% paraformaldehyde, 0.5% Triton X-100; 3 μM DRAQ7 or 10 μM dye, 5 minutes, room temperature", "method": "Adherent HeLa cells in 12-well plates were fixed with 4% paraformaldehyde for 15 minutes at room temperature. Cells were then permeabilized with 0.5% Triton X-100 for 10 minutes at room temperature. Three micromolar (3 μM, the manufacturer's recommended concentration) DRAQ7 or 10 μM Dye No. 7, 13, or 15 were added to the fixed and permeabilized cells in 1×PBS and incubated for 5 minutes at room temperature. The dye/PBS solution was removed and replaced with fresh 1×PBS. Fluorescence was observed using an epifluorescence microscope with the CY5 filter (FIG. 3)."}, "HeLa cells [2]": {"tested_on": "HeLa cells", "assay": "Toxicity approximately 18 hours after staining (bright-field microscopy)", "details": "live HeLa cells, 5 μM DRAQ5 or 20 μM Dye No. 1, 5 minutes at 37° C., then approximately 18 hours in fresh medium", "method": "Dark spots are indicative of dead cells.\nLive HeLa cells were treated with either 5 μM DRAQ5 or 20 μM Dye No. 1 in 1×PBS for 5 minutes at 37° C. The dye/PBS solution was removed and replaced with fresh Dulbecco/Vogt modified Eagle's minimal essential medium (DMEM) supplemented with bovine growth serum (BGS). The cells were incubated at 37° C. for approximately 18 hours, and observed under bright-field at 10× magnification (FIG. 2)."}, "HeLa cells [3]": {"tested_on": "HeLa cells", "assay": "Staining live cells with Dye No. 1 (fluorescence microscopy)", "details": "live adherent HeLa cells; 5 μM DRAQ5 or 10 μM Dye No. 1 in 1× PBS, 37° C., 5 minutes; CY5 filter", "method": "Live, adherent HeLa cells grown in 12-well plates were treated with either 5 μM DRAQ5 or 10 μM of Dye No. 1 in 1× phosphate buffered saline (PBS). Cells were incubated at 37° C. for 5 minutes. Fluorescence was observed using an epifluorescence microscope with the CY5 filter."}, "HeLa cells [4]": {"tested_on": "HeLa cells", "assay": "Normalizing or counting cell number", "details": "HeLa cells seeded at several densities, fixed, permeabilized, stained one hour at room temperature; LI-COR Odyssey", "method": "HeLa cells were counted/normalized using Dye No. 1. HeLa cells were seeded in 96-well—lates at several densities per well (as indicated on the x-axis of FIG. 7). After 24 hours, cells were fixed, permeabilized, and stained with the indicated dyes for one hour at room temperature according to the protocol provided by the supplier of the DRAQ5/Sapphire700 system. Fluorescence was quantitated using a LI-COR Odyssey system. HeLa cells seeded at 25,000 cells were confluent at the time of the assay."}, "HeLa cells [5]": {"tested_on": "HeLa cells", "assay": "Staining of live (unfixed) HeLa cultures; selective staining of dead cells", "details": "1 uL of 500 uM dye stock in 100 uL medium, five minutes, room temperature", "method": "HeLa cells were seeded at a density of 2×10^4 cells in 100 uL culture medium per well in tissue culture treated, optical bottom, black 96-well plates. One day after seeding, 1 uL of 500 uM dye stock in DMSO was added directly to the culture medium (100 uL) and mixed by trituration. The cells were incubated at room temperature for five minutes. The culture medium containing dye was removed and replaced by 100 uL phosphate buffered saline. Cellular fluorescence was imaged using an the Cy5 filter set of an Olympus IX71 epifluorescence microscope and a Q-Imaging Retiga 2000R Fast 1394 mono camera (FIG. 5). […] Probes that can selectively detect dead cells are useful in cell viability assays, which are widely practiced in drug screening."}, "rat skeletal muscle": {"tested_on": "rat skeletal muscle", "assay": "Staining of tissue sections with Dye No. 7", "details": "acetone-fixed frozen sections of rat skeletal muscle; 10 uM, five minutes, room temperature", "method": "Acetone-fixed frozen sections of rat skeletal muscle were purchased from Biochain Institute Inc. (Hayward, Calif.). Sections were rinsed in phosphate buffered saline and stained with 10 uM Dye No. 7 and 5 units/mL CF488A-phalloidin (Biotium Inc, Hayward, Calif.) for five minutes at room temperature. Sections were rinsed twice in phosphate buffered saline and mounted with EverBrite mounting medium (Biotium, Inc, Hayward, Calif.). Tissue fluorescence was imaged using the FITC and Cy5 filter sets of an Olympus IX71 epifluorescence microscope and a Q-Imaging Retiga 2000R Fast 1394 mono camera (FIG. 4)."}},
  "note": "Entries after “also recorded” stand apart in the source; their conditions may differ.",
  "data": [
    {"smiles": "O=C1c2c(O)ccc(NCCNC3=NCCN3)c2C(=O)c2c(O)ccc(NCCNC3=NCCN3)c21", "note": "[Dye No. 13]", "values": [
      {"measurement": "nuclear staining specificity in fixed and permeabilized cells", "setting": "HeLa cells [1]", "value": "much more specific in nuclear staining than Draq7"}
    ]},
    {"smiles": "CN(C)CCNc1ccc(O)c2c1C(=O)c1c(O)ccc(NCCN(C)C)c1C2=O", "note": "[Draq5, reference compound]", "values": [
      {"measurement": "toxicity (cell death) after staining", "setting": "HeLa cells [2]", "value": "more cell death than that with Dye No. 1"},
      {"measurement": "nuclear staining of live cells", "setting": "HeLa cells [3]", "value": "stained the nuclei of live cells with high specificity; also recorded: stained the nuclei of live cells specifically"}
    ]},
    {"smiles": "CC(=N)NCCNc1ccc(O)c2c1C(=O)c1c(O)ccc(NCCNC(C)=N)c1C2=O", "note": "[Dye No. 15]", "values": [
      {"measurement": "nuclear staining specificity in fixed and permeabilized cells", "setting": "HeLa cells [1]", "value": "much more specific in nuclear staining than Draq7; also recorded: stained cell nuclei specifically"}
    ]},
    {"smiles": "CN(C)CCNc1ccc(O)c2c1C(=O)c1c(O)ccc(NCCNC(=O)C3CCCN3)c1C2=O", "note": "(centres unmarked) [Dye No. 1]", "values": [
      {"measurement": "fluorescence versus number of cells stained", "setting": "HeLa cells [4]", "value": "linear with the number of cells stained"},
      {"measurement": "toxicity (cell death) after staining", "setting": "HeLa cells [2]", "value": "caused fewer cell deaths than Draq5 even at a much higher concentration; also recorded: much less toxic than Draq5"},
      {"measurement": "nuclear staining of live cells", "setting": "HeLa cells [3]", "value": "stained the nuclei of live cells with high specificity; also recorded: stained the nuclei of live cells specifically"},
      {"measurement": "staining of live versus dead cells in live (unfixed) culture", "setting": "HeLa cells [5]", "value": "stained the nuclei of all cells"}
    ]},
    {"smiles": "CN(C)CCNc1ccc(O)c2c1C(=O)c1c(O)ccc(NCCNC(=N)CCCCC(=N)NCCNc3ccc(O)c4c3C(=O)c3c(O)ccc(NCCN(C)C)c3C4=O)c1C2=O", "note": "[Dye No. 7]", "values": [
      {"measurement": "nuclear staining specificity in fixed and permeabilized cells", "setting": "HeLa cells [1]", "value": "much more specific in nuclear staining than Draq7; also recorded: stained cell nuclei specifically"},
      {"measurement": "nuclear staining specificity in tissue", "setting": "rat skeletal muscle", "value": "excellent nuclear specificity"},
      {"measurement": "staining of live versus dead cells in live (unfixed) culture", "setting": "HeLa cells [5]", "value": "selectively stained the nuclei of dead cells only"}
    ]}
  ]
}
